From patent publication US9844577B1, “Medicinal composition for prevention or treatment retinal ischemia” (priority 2017, dated 2017) come the findings set out here.

Assay in all cases: Retinal protein level by western blot after retinal ischemia
Holding throughout (assay type): in vivo, Wistar rats

Test [1] deals with HIF-1α protein. To be noted: intravitreal 5 μl 15 min before ischemia: 4 μM Shikonin, 10 μM JIB-04, 100 mg/4 ml Avastin; Vehicle 3.69±0.22. As to the method: (§1) After anesthesia, rats (200-250 g) were placed in a stereotaxic frame. A high intraocular pressure (HIOP) of 120 mmHg for 60 min was induced by cannulating the anterior chamber of one eye of an ischemic rat with a 30-gauge needle connected to an elevated 0.9% saline reservoir. The ischemic insult was confirmed by the detection of a pale eye fundus. In contrast, one eye of a control rat received a sham procedure where the saline reservoir was not elevated.
(§2) An intake of 1.35 or 2.7 g/kg/day XFZYD (Sun Ten Pharmaceutical CO, Taichung, Taiwan) was given for 7 consecutive days before or after HIOP induced retinal ischemia until the rats were sacrificed. The test rat whose eye was subjected to ischemia was fed with the constant volume (4 ml) of XFZYD or the equal volume of vehicle.
(§3) After anesthesia as described, pupil dilation with 1% tropicamide (Alcon, ZG, Switzerland) and 2.5% phenylephrine (Akorn, Inc., IL, USA) as well as surface anesthesia with 0.5% proparacaine (Alcon, ZG, Switzerland), a 30-gauge needle attached to a 25 μl syringe was used to perform intravitreal injections. In certain instances, intravitreal injections 5 μl of 4 μM Shikolin (Sigma-Aldrich, MO, USA), 10 μM JIB-04 (Sigma-Aldrich, MO, USA), 5 μl of 100 mg/4 ml Avastin (Hoffmann-La Roche, Basel, Switzerland) or of vehicle (an equal volume of dimethyl sulfoxide; J. T. Baker, NJ, USA) were performed on ischemic eyes fifteen minutes before pressure induced retinal ischemia.
(§4) Twenty-four hours after retinal ischemia and pre-/post-ischemia administration of the defined chemicals or after a sham procedure, the rats were sacrificed. The retinas were removed and sonicated in lysis buffer, namely mammalian protein extraction reagent (HyCell, Taipei, Taiwan). […] Journal of Ocular Pharmacology and Therapeutics. 2010; 26(5):421-429; Hsiao-Ming Chao, Min-Jay Chuang, Jorn-Hon Liu, Xiao-Qian Liu, Li-Kang Ho, Wynn H. T. Pan, Xiu-Mei Zhang, Chi-Ming Liu, Shen-Kou Tsai, Chi-Woon Kong, Shou-Dong Lee, Mi-Mi Chen, and Fang-Ping Chao. Baicalein protects against retinal ischemia by antioxidation, antiapoptosis, downregulation of HIF-1α, VEGF, and MMP-9 and upregulation of HO-1. Journal of Ocular Pharmacology and Therapeutics. 29(6): 539-549, 2013). The separated proteins were transferred to a polyvinylidene difluoride (PVDF) membrane (Millipore, MA, USA). The membranes were then blocked for 1 hour at room temperature with 5% fat-free skimmed milk (Fonterra, Taoyuan, Taiwan) in phosphate-buffered saline (PBS). Next, the blots were incubated individually overnight at 4° C. with one of the following primary antibodies, namely, mouse monoclonal anti-β-actin antibody (1:80000, Novusbio, MA, USA), mouse monoclonal anti-VEGF antibody (1:200, Novusbio, MA, USA), mouse monoclonal anti-HIF-1α antibody (1:1000, Abcom, Cambridge, UK), rabbit polyclonal anti-PKM2 antibody (1:600, Abcom, Cambridge, UK) and rabbit monoclonal anti-RBP2 antibody (1:500, Abcom, Cambridge, UK). The blots were then incubated in the secondary antibody, either horseradish peroxidase (HRP)-conjugated goat anti-rabbit or antimouse IgG (1:2000 or 1:10000, Santa Cruz Biotechnology, TX, USA) as appropriate at 37° C. for 1 h. The primary/secondary antibodies were diluted in 5% fat-free skimmed milk. Finally, the membranes were developed using the enhanced chemiluminescent analysis system (HyCell, Taipei, Taiwan), and exposed to an X-ray film (Fujifilm, Tokyo, Japan). Scanning densitometry was used to analyze the amount of each protein present.

The test system of test [2] is PKM2 protein. To be noted: intravitreal 5 μl 15 min before ischemia: 4 μM Shikonin, 10 μM JIB-04, 100 mg/4 ml Avastin; Vehicle 4.04±0.50. As to the method: as §1, §2, §3, §4
The test system of test [3] is RBP2 protein. To be noted: intravitreal 5 μl 15 min before ischemia: 4 μM Shikonin, 10 μM JIB-04, 100 mg/4 ml Avastin; Vehicle 7.77±2.27. As to the method: as §1, §2, §3, §4
Test [4] concerns VEGF protein. To be noted: intravitreal 5 μl 15 min before ischemia: 4 μM Shikonin, 10 μM JIB-04, 100 mg/4 ml Avastin; Vehicle 6.92±1.55. As to the method:
as §1, §2, §3, §4

Take `Clc1ccc(N/N=C(\c2ccccc2)c2ccccn2)nc1` [JIB-04]: the “ratio of protein expression level of HIF-1α relative to β-actin” value (shortened to “ratio … of HIF-1α relative to β-actin”) in test [1] turned out to be 2.14±1.11. Also, the “ratio of protein expression level of PKM2 relative to β-actin” value (shortened to “ratio … of PKM2 relative to β-actin”) in test [2] was determined as 1.67±1.31. In test [3], the “ratio of protein expression level of RBP2 relative to β-actin” value (“ratio … of RBP2 relative to β-actin” for short) is 1.16±0.14. The “ratio of protein expression level of VEGF relative to β-actin” value (“ratio … of VEGF relative to β-actin” below) in test [4] turned out to be 1.68±0.46.

Regarding `CC(C)=CC[C@@H](O)C1=CC(=O)c2c(O)ccc(O)c2C1=O` [Shikonin], the “ratio … of HIF-1α relative to β-actin” value in test [1] worked out at 1.95±0.76. Also, in test [2], the “ratio … of PKM2 relative to β-actin” value was determined as 0.61±0.19. In addition, in test [3], the “ratio … of RBP2 relative to β-actin” value stood at 1.00±0.71. For the same compound, the “ratio … of VEGF relative to β-actin” value in test [4] worked out at 1.84±0.60.

Take “Avastin: VEGF antibody (Hoffmann-La Roche)”: in test [1], the “ratio … of HIF-1α relative to β-actin” value stood at 3.65±0.84. In addition, the “ratio … of PKM2 relative to β-actin” value in test [2] was determined as 3.42±0.88. The “ratio … of RBP2 relative to β-actin” value in test [3] was 6.00±3.61. Also, in test [4], the “ratio … of VEGF relative to β-actin” value was 1.08±0.23.
